Test results as given in patent US9957274B2, “Indane inhibitors of EED and methods of their use” (AbbVie Inc., priority 2016, dated 2018).

What was measured:
[1] = tested on: Pfeiffer cells; experiment: CTG cell viability assay (CellTiter-Glo); type: cell-based; settings: Homo sapiens, 240 h; Pfeiffer cells, 10 days with compound, CellTiter-Glo; read-out: Cell Proliferation IC50
Method: 1,000 cells were plated into each well of 96-well Corning CellBing cell culture plates and incubated overnight at 37° C. in a humidified CO2 incubator. […] The cell culture plates were then incubated for 10 more days. CTG cell viability assay was performed on the cell culture samples by using CellTiter-Glo® Luminescent Cell Viability Assay Kit (Promega).

[2] = biological target: EED (Homo sapiens, UniProt O75530); experiment: EED TR-FRET Binding Assay (modified LanthaScreen competition assay)
EED, sequence (O75530 whole entry): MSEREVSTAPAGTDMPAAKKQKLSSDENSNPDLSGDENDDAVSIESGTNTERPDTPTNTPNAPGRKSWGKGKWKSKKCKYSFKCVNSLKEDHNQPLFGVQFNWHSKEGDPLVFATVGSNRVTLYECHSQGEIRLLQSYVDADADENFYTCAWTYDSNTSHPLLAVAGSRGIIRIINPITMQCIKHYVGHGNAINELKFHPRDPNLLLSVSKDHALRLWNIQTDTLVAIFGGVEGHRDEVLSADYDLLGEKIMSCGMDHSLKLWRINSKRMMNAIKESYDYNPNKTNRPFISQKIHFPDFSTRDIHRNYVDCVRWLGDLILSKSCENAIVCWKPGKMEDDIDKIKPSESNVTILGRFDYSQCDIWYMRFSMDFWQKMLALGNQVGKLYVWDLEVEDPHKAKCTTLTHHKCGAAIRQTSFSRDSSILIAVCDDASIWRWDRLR
Method: Compounds were tested in a modified LanthaScreen competition assay.
The following buffer was used to set up the binding reactions: 20 mM Tris-HCl pH 7.5, 200 mM NaCl, 0.01% Tween-20, 10 uM DTT (dithiothreitol), and 0.05% BSA (bovine serum albumin), with the DTT and BSA added fresh prior to initiating the binding assay. […] The reactions were then incubated for 1 hour at 25° C. in a humidified chamber prior to detection on the Perkin Elmer Envision plate reader using a Lanthascreen TR-FRET protocol.

Structure (SMILES): CN(C)[C@H]1CN(C2C[C@H](F)c3cccc(F)c32)C[C@@H]1c1ccc(S(C)(=O)=O)cc1 (mixture of isomers) [Example 30, rac-(3R,4S)-1-[(3S)-3,7-difluoro-2,3-dihydro-1H-inden-1-yl]-4-[4-(methanesulfonyl)phenyl]-N,N-dimethylpyrrolidin-3-amine]
- IC50 [1]: 3.1 µM
- IC50 [2]: 0.0114 µM

Structure (SMILES): CN(C)[C@H]1CN(C2CCc3cccc(F)c32)C[C@@H]1c1cn(C)c2cc(C(=O)N3C[C@H](O)[C@@H](O)C3)ccc12 (mixture of isomers) [Example 114, rac-[(3S,4S)-3,4-dihydroxypyrrolidin-1-yl]{3-[(3S,4R)-4-(dimethylamino)-1-(7-fluoro-2,3-dihydro-1H-inden-1-yl)pyrrolidin-3-yl]-1-methyl-1H-indol-6-yl}methanone]
- IC50 [1]: 3.13 µM
- IC50 [2]: 0.00558 µM

Structure (SMILES): CN(C)[C@H]1CN(C2CCc3cccc(F)c32)C[C@@H]1c1cn(C)c2c(C(=O)N3CCC[C@H]3CO)cccc12 (mixture of isomers) [Example 116, rac-{3-[(3S,4R)-4-(dimethylamino)-1-(7-fluoro-2,3-dihydro-1H-inden-1-yl)pyrrolidin-3-yl]-1-methyl-1H-indol-7-yl}[(2S)-2-(hydroxymethyl)pyrrolidin-1-yl]methanone]
- IC50 [1]: 0.0996 µM
- IC50 [2]: 0.00177 µM

Structure (SMILES): CN(C)[C@H]1CN(C2CCc3cccc(F)c32)C[C@@H]1c1cn(C)c2c(C(=O)N3CC[C@H](O)C3)cccc12 (mixture of isomers) [Example 118, rac-{3-[(3S,4R)-4-(dimethylamino)-1-(7-fluoro-2,3-dihydro-1H-inden-1-yl)pyrrolidin-3-yl]-1-methyl-1H-indol-7-yl}[(3S)-3-hydroxypyrrolidin-1-yl]methanone]
- IC50 [1]: 0.298 µM
- IC50 [2]: 0.00335 µM

Structure (SMILES): CN(C)[C@@H]1CN(C2CCc3cccc(F)c32)C[C@H]1c1ccc(C(N)=O)cc1 (mixture of isomers) [Example 35, rac-4-[(3R,4S)-4-(dimethylamino)-1-(7-fluoro-2,3-dihydro-1H-inden-1-yl)pyrrolidin-3-yl]benzamide]
- IC50 [1]: > 10 µM
- IC50 [2]: 0.0068 µM

Structure (SMILES): CN(C)[C@H]1CN(C2CCc3cccc(F)c32)C[C@@H]1C1CCOCC1 (mixture of isomers) [Example 144, rac-(3R,4S)-1-(7-fluoro-2,3-dihydro-1H-inden-1-yl)-N,N-dimethyl-4-(oxan-4-yl)pyrrolidin-3-amine]
- IC50 [2]: 0.0121 µM

Structure (SMILES): CN(C)[C@@H]1CN(C2CCc3cccc(F)c32)C[C@H]1c1ccc(N2CCNCC2)nc1 (mixture of isomers) [Example 145, rac-(3S,4R)-1-(7-fluoro-2,3-dihydro-1H-inden-1-yl)-N,N-dimethyl-4-[6-(piperazin-1-yl)pyridin-3-yl]pyrrolidin-3-amine]
- IC50 [2]: 0.0052 µM

Structure (SMILES): CN(C)[C@H]1CN([C@H]2CCc3ccccc32)C[C@@H]1c1ccc(S(C)(=O)=O)cc1 [Example 9, (3R,4S)-1-[(1S)-2,3-dihydro-1H-inden-1-yl]-4-[4-(methanesulfonyl)phenyl]-N,N-dimethylpyrrolidin-3-amine]
- IC50 [2]: 0.0101 µM

Structure (SMILES): CN(C)[C@@H]1CN([C@H]2CCc3ccccc32)C[C@H]1c1ccc(S(C)(=O)=O)cc1 [Example 10, (3S,4R)-1-[(1S)-2,3-dihydro-1H-inden-1-yl]-4-[4-(methanesulfonyl)phenyl]-N,N-dimethylpyrrolidin-3-amine]
- IC50 [2]: 0.29 µM

Structure (SMILES): CN(C)[C@@H]1CN([C@H]2CC(O)c3cccc(F)c32)C[C@H]1c1ccc(S(C)(=O)=O)cc1 (stereo partly drawn) [Example 33, (3S)-3-{(3S,4R)-3-(dimethylamino)-4-[4-(methanesulfonyl)phenyl]pyrrolidin-1-yl}-4-fluoro-2,3-dihydro-1H-inden-1-ol]
- IC50 [2]: > 50 µM

Structure (SMILES): CC(=O)N1CCN(c2ccc([C@H]3CN(C4CCc5ccccc54)C[C@@H]3N(C)C)cc2)CC1 (stereo partly drawn) [Example 42, 1-(4-{4-[(3S,4R)-1-(2,3-dihydro-1H-inden-1-yl)-4-(dimethylamino)pyrrolidin-3-yl]phenyl}piperazin-1-yl)ethan-1-one]
- IC50 [2]: > 50 µM

Structure (SMILES): CC(=O)N1CCN(c2ccc([C@@H]3CN([C@H]4CCc5cccc(F)c54)C[C@H]3N(C)C)cc2)CC1 [Example 47, 1-[4-(4-{(3R,4S)-4-(dimethylamino)-1-[(1S)-7-fluoro-2,3-dihydro-1H-inden-1-yl]pyrrolidin-3-yl}phenyl)piperazin-1-yl]ethan-1-one]
- IC50 [2]: 0.0423 µM

Structure (SMILES): CC(=O)N1CCN(c2ccc([C@@H]3CN([C@@H]4CCc5cccc(F)c54)C[C@H]3N(C)C)cc2)CC1 [Example 48, 1-[4-(4-{(3R,4S)-4-(dimethylamino)-1-[(1R)-7-fluoro-2,3-dihydro-1H-inden-1-yl]pyrrolidin-3-yl}phenyl)piperazin-1-yl]ethan-1-one]
- IC50 [2]: 0.018 µM

Structure (SMILES): CN(C)[C@@H]1CN(C2CCc3cccc(F)c32)C[C@H]1c1ccc(N2CCN(C(=O)OC(C)(C)C)CC2)cc1 (stereo partly drawn) [Example 50, tert-butyl 4-{4-[(3R,4S)-4-(dimethylamino)-1-(7-fluoro-2,3-dihydro-1H-inden-1-yl)pyrrolidin-3-yl]phenyl}piperazine-1-carboxylate]
- IC50 [2]: 0.00115 µM

Structure (SMILES): CN(C)[C@@H]1CN(C2CCc3cccc(F)c32)C[C@H]1c1cn(C)c2c(C(=O)O)cccc12 (stereo partly drawn) [Example 81, 3-[(3R,4S)-4-(dimethylamino)-1-(7-fluoro-2,3-dihydro-1H-inden-1-yl)pyrrolidin-3-yl]-1-methyl-1H-indole-7-carboxylic acid]
- IC50 [2]: 0.0982 µM

Structure (SMILES): COC(=O)c1cccc2c([C@H]3CN(C4CCc5cccc(F)c54)C[C@@H]3N(C)C)cn(C)c12 (stereo partly drawn) [Example 84, methyl 3-[(3S,4R)-4-(dimethylamino)-1-(7-fluoro-2,3-dihydro-1H-inden-1-yl)pyrrolidin-3-yl]-1-methyl-1H-indole-7-carboxylate]
- IC50 [2]: 0.000296 µM

Structure (SMILES): COC(=O)c1cccc2c([C@@H]3CN(C4CCc5cccc(F)c54)C[C@H]3N(C)C)cn(C)c12 (stereo partly drawn) [Example 86, methyl 3-[(3R,4S)-4-(dimethylamino)-1-(7-fluoro-2,3-dihydro-1H-inden-1-yl)pyrrolidin-3-yl]-1-methyl-1H-indole-7-carboxylate]
- IC50 [2]: 0.0148 µM

Structure (SMILES): CN(C)[C@H]1CN(C2CCc3ccc(F)c(F)c32)C[C@@H]1c1cn(C)c2ccccc12 (stereo partly drawn) [Example 96, (3R,4S)-1-(6,7-difluoro-2,3-dihydro-1H-inden-1-yl)-N,N-dimethyl-4-(1-methyl-1H-indol-3-yl)pyrrolidin-3-amine]
- IC50 [2]: 0.00426 µM

Structure (SMILES): CN(C)[C@H]1CN(C2CCc3cccc(O)c32)C[C@@H]1c1cn(C)c2ccccc12 (stereo partly drawn) [Example 97, 3-[(3R,4S)-3-(dimethylamino)-4-(1-methyl-1H-indol-3-yl)pyrrolidin-1-yl]-2,3-dihydro-1H-inden-4-ol]
- IC50 [2]: 0.0336 µM

Structure (SMILES): Cc1cccc2c1C(N1C[C@H](c3cn(C)c4ccccc34)[C@@H](N(C)C)C1)CC2 (stereo partly drawn) [Example 100, (3R,4S)-N,N-dimethyl-1-(7-methyl-2,3-dihydro-1H-inden-1-yl)-4-(1-methyl-1H-indol-3-yl)pyrrolidin-3-amine]
- IC50 [2]: 0.0584 µM

Structure (SMILES): CN(C)[C@@H]1CN(C2CCc3cccc(F)c32)C[C@H]1c1cn(C)c2c(C(=O)N3CC(F)C3)cccc12 (stereo partly drawn) [Example 104, {3-[(3R,4S)-4-(dimethylamino)-1-(7-fluoro-2,3-dihydro-1H-inden-1-yl)pyrrolidin-3-yl]-1-methyl-1H-indol-7-yl}(3-fluoroazetidin-1-yl)methanone]
- IC50 [2]: 0.0153 µM
